Measured values published in patent US20170121752A1, “DETECTION OF ACRYLIC ACID” (AGENCY FOR SCIENCE, TECHNOLOGY AND RESEARCH, priority 2014, published 2017).
“Also recorded” adds a separate entry of the source.

Legend:
[1] = Fluorescence assay of the photoactivated reaction between diaryltetrazole and acrylic acid; details: for λem,max / λex,max: 100 μM compound reacted with acrylic acid; for λem,max / λex,max / Fold increase in fluorescence 100 μM / Fold increase in fluorescence 10 mM: photoirradiation 1 minute at 302 nm; for Fold increase in fluorescence 100 μM / Fold increase in fluorescence 10 mM: 100 μM compound; for Fold increase in fluorescence 100 μM / pH of signal detection peak: 100 μM acrylic acid; for Fold increase in fluorescence 10 mM: 10 mM acrylic acid; for fluorescence increases above the background: reacted with acrylic acid, summary of Table 1
Protocol: A solution containing the diaryltetrazole (0.022 mmol) and acrylic acid (0.02 to 0.050 mmol) was irradiated with a hand-held 302-nm UV lamp for 1 minute. Experiments were performed in a black 96-well plate with a total reaction volume of 100 The maximum excitation wavelengths indicated in Table 1 were used for each of the scans. The fluorescence emission spectrums of the reaction are shown in FIG. 1a to if using 10 μM of acrylic acid. The spectra for control experiments where either of the reactants was omitted have also been depicted in each of FIGS. 1a to 1f.
As mentioned earlier, the lower limit of detection of acrylic acid for compound 4 was 500 nM of acrylic acid upon a 1 minute photoactivation period with UV light at 302 nm. […]
As described above, compound 4 was used in further experiments to detect acrylic acid. The reaction between compound 4 and acrylic acid was carried out in water with a photoactivation time of 1 minute at 302 nm. Using 100 μM of 4, acrylic acid concentrations from 1 μM to 100 μM were readily detectable with a fluorescence microplate reader (see FIG. 3 and example 9).

[2] = Fluorescence assay of the photoactivated reaction between diaryltetrazole and acrylamide
Protocol: To substantiate the above, the reaction between compound 4 and acrylic acid (AA), and the reaction between compound 4 and acrylamide (a derivative), were carried out in buffers from pH 1 to pH 13. […] Deprotonation of the chromophore appears to result in higher fluorescence intensity of the pyrazoline product.
100 μM acrylic acid and 2 different grades of acrylamides, particularly gel electrophoresis acrylamide (GE) and molecular biology acrylamide (MB), were tested with 100 μM of compound 4 over the entire pH range. The reaction between compound 4 and acrylic acid/acrylamide was carried out in a phosphate buffer (having different pH as indicated) in 10% DMSO with a photoactivation time of 1 minute at 302 nm. Fluorescence was measured using a fluorescence microplate reader. […] Clearly, the detection method of the present disclosure is capable of detecting acrylate derivatives.
Compound 4 was also used to detect acrylamide in vitro. The reaction between compound 4 and acrylamide was carried out in phosphate buffer at pH 9.0 with 10% DMSO with a photoactivation time of 1 minute at 302 nm. Using 100 μM of compound 4, acrylamide concentrations from 1 μM to 100 μM were readily detectable with a fluorescence microplate reader as shown in FIG. 18.
10% (v/v) of different oils in a phosphate buffer of pH 9.0 containing 1% Tween-20 were spiked in with 10 mM Acrylamide (gel electrophoresis grade). Controls were uncontaminated. Reactions of these mixtures were set up with 100 μM of compound 4 with a photoactivation time of 1 minute at 302 nm. Fluorescence was measured using a fluorescence microplate reader.
100 μM of acrylic acid and acrylamide (gel electrophoresis grade) were tested with 100 μM of compound 4 over a pH range of 7 to 13. The reaction between compound 4 and acrylic acid/acrylamide was carried out in a phosphate buffer (having different indicated pH) in 10% DMSO with a photoactivation time of 1 minute at 302 nm. Fluorescence was measured using a fluorescence microplate reader.

[3] = Reaction monitoring of photoactivated cycloaddition using HPLC and fluorescence
Protocol: 10 mM of compound 4 was dissolved in dichloromethane and methanol (1:1). A separate solution of 10 mM of acrylic acid was dissolved in methanol. 10 μL of 10 mM of compound 4 and 10 μL of 10 mM of acrylic acid were then dissolved in 80 μL of methanol. After vigorous stirring, the mixture was irradiated with a 302 nm UV lamp for 0 seconds, 15 seconds, 30 seconds, 45 seconds, 60 seconds, 90 seconds and 120 seconds, respectively. An aliquot (10 μL) of reaction solution from each sample was withdrawn and immediately injected in the HPLC column. Compound 4 (denoted as A) and the pyrazoline product 4P (denoted as B) in each sample was monitored by UV absorbance at 254 nm and 370 nm. A linear gradient of 5 to 90% MeOH was applied after 3 minutes for 10 minutes, which is then kept constant for 10 minutes before a 7 minutes linear declining gradient of 90 to 5% MeOH. Compound 4 and product 4P were eluted at about 13.4 minutes and 12.4 minutes respectively.
The kinetic reaction studies involving diaryltetrazole compound 4 and acrylic acid were carried out by monitoring with HPLC from 0 to 120 seconds as described above.
Fluorescence turn on of the reaction mixture occurred after 15 seconds. The left vial to the right vial are labelled as no UV activation, 15 seconds, 30 seconds, 45 seconds, 60 seconds, 90 seconds, 120 seconds of UV activation, respectively. […]

E. coli cells = assay: In vivo detection of acrylic acid in E. coli cells by fluorescence microscopy; assay type: cell-based; details: 100 μM acrylic acid 10 minutes, 100 μM compound 4 30 min, UV 302 nm 1 minute
Protocol: The use of compound 4 as an acrylic acid sensor in vivo was tested in this example. E. coli cells were grown to late log phase (OD600˜1.0) and treated with 100 μM acrylic acid for 10 minutes at 37° C. Upon washing, cells were treated with 100 μM of compound 4 and incubated at 37° C. for 30 min in the dark. The cells were washed, pelleted, suspended in 1×PBS and mounted on a slide. They were then exposed to UV light at 302 nm for 1 minute and imaged under a fluorescence microscope (using DAPI filters) after about 2 hours of recovery at room temperature. Control cells include untreated cells; cells treated with either acrylic acid or compound 4 alone and without UV treatment.

C. propionicum cells = assay: In vivo detection of acrylic acid in C. propionicum cells by fluorescence microscopy and lysate fluorescence; assay type: cell-based, Clostridium propionicum; details: 100 μM compound 4, 30 min, UV 302 nm 1 minute, with or without 100 μM acrylic acid added
Protocol: To test the diaryltetrazole sensor for in vivo production of acrylic acid, we applied compound 4 to C. propionicum cells. C. propionicum cells were grown to late log phase (OD600˜1.0) in an anoxia chamber and treated with 100 μM of compound 4. After incubating at 37° C. for 30 min in the dark, cells were washed, pelleted, suspended in PBS buffer and mounted on a slide. Cells were exposed to 302 nm UV light for 1 minute and imaged under a fluorescence microscope (using DAPI filters) after about 2 hours of recovery at room temperature. Control cells include cells treated with acrylic acid and compound 4 to observe positive fluorescence; untreated cells and cells treated with acrylic acid alone and without UV treatment. […] This indicates the production of acrylic acid intermediates in these cells and the diaryltetrazole probe is capable of detecting them.

C. propionicum = assay: Fluorescence signal of bacterial cell lysates grown with 3-butynoic acid; assay type: cell-based, Clostridium propionicum; details: media with 5 and 10 mM 3-butynoic acid, lysates treated with compound 4
Protocol: The cell lysates were treated with […] of diaryltetrazole compound 4 for fluorescence detection. […] 3-Butynoic acid, an acyl CoA dehydrogenase inhibitor, may be capable of promoting accumulation of acrylyl CoA in cells. In C. propionicum, acrylyl CoA is normally converted to propionyl CoA. However, in the presence of 3-butynoic acid, this reaction is inhibited. […] C. propionicum naturally produces acrylic acid but E. Coli. may not naturally produce acrylic acid.

Row | Compound | λem,max [1] | λex,max [1] | Fold increase in fluorescence 100 μM [1] | Fold increase in fluorescence 10 mM [1] | fluorescence increases above the background [1] | further results
1 | COC(=O)c1ccc(-c2nnn(-c3ccc(F)cc3F)n2)cc1 [Compound 3] | 482 nm | 380 nm | 1.12 | 3.17 | around 3 fold | –
2 | O=C(O)c1ccc(-c2nnn(-c3ccccc3)n2)cc1 [Compound 4] | 520 nm | 380 nm | 132 | 5.15 | – | pH of signal detection peak ([1]; 100 μM compound 4, entire pH range, phosphate buffer 10% DMSO (FIG. 17)): 11.0 pH; pH of signal detection peak ([1]; 100 μM compound 4, pH range 7 to 13 (FIG. 21)): 10.0 pH; fluorescence detection of acrylic acid in LB media and minimum media ([1]; 100 μM compound 4, 1 min photoactivation): readily detected before the completion of photoactivation; lower limit of detection of acrylic acid ([1]; 1 minute photoactivation with UV light at 302 nm): 500 nM; Fold increase in fluorescence ([1]; Table 2: 100 μM compound 4, 500 nM acrylic acid): 1.12; Fold increase in fluorescence ([1]; Table 2: 100 μM compound 4, 1 μM acrylic acid): 1.58; Fold increase in fluorescence ([1]; Table 2: 100 μM compound 4, 10 μM acrylic acid): 17; Fold increase in fluorescence ([1]; Table 2: 100 μM compound 4, 100 μM acrylic acid): 132; fluorescence of the probe alone (control experiments) ([1]; buffers pH 1 to pH 13, without analyte): not fluorescent at all pH tested; pH of fluorescent peak ([2]; 100 μM acrylamide (gel electrophoresis grade), 100 μM compound 4, pH range 7 to 13 (FIG. 21)): 9.0 pH; pH of signal detection peak ([2]; 100 μM acrylamide, 100 μM compound 4, entire pH range, phosphate buffer 10% DMSO (FIG. 17)): 9.0 pH; detection of acrylamide in a complex organic/detergent mixture ([2]; 10% (v/v) oils, phosphate buffer pH 9.0, 1% Tween-20, 10 mM acrylamide, 100 μM compound 4): able to detect acrylamide in a complex organic/detergent mixture; time to completion of the reaction with acrylic acid ([3]; HPLC monitoring, 302 nm UV, methanol): ≤ 90 s; time to fluorescence turn on of the reaction mixture ([3]; compound 4 and acrylic acid in methanol, UV activation): ≤ 15 s; fluorescence of bacterial cells (E. coli cells): only fluorescent in the presence of both acrylic acid and compound 4; fluorescence of cells (C. propionicum cells): cells were fluorescent
3 | C#CCC(=O)O [3-butynoic acid, 3-Butynoic acid] | – | – | – | – | – | fluorescence signal of cell lysates (C. propionicum): fluorescence signal is higher
4 | Cc1ccc(-c2nnn(-c3ccc(N)cc3)n2)cc1 [Compound 5] | – | – | – | – | – | fluorescence / reactivity towards acrylic acid ([1]; reaction with acrylic acid, photoactivation): No fluorescence; also recorded: unreactive towards acrylic acid, forming little or no fluorescent product

More lines, main results first:

Row | λem,max [1] | λex,max [1] | Compound | Fold increase in fluorescence 100 μM [1] | Fold increase in fluorescence 10 mM [1] | fluorescence increases above the background [1] | further results
5 | 487 nm | 392 nm | COC(=O)c1ccc(-c2nnn(-c3ccc(F)cc3)n2)cc1 [Compound 2] | 1.12 | 3.38 | around 3 fold | –
6 | – | 371 nm | COc1ccc(-n2nnc(-c3ccc(C)cc3)n2)cc1 [Compound 6] | – | 3.87 | around 3 fold | –
7 | 482 nm | 395 nm | COC(=O)c1ccc(-c2nnn(-c3ccccc3)n2)cc1 [Compound 1] | – | 3.23 | around 3 fold | –
8 | – | 368 nm | COc1ccc(-n2nnc(-c3ccccc3)n2)cc1 [Compound 7] | 1.43 | 3.38 | around 3 fold | –
